These results are taken from article PMC9731497, “Identification of potent anti-Cryptosporidium new drug leads by screening traditional Chinese medicines” (PLOS Neglected Tropical Diseases, 2022).

One data set relates to C. parvum HNJ-1 strain. Description: In vitro C. parvum growth inhibition assay (Sporo-Glo staining, fluorescence microscopy count in infected HCT-8 cells). It counts as cell-based, Cryptosporidium parvum. Conditions: Cryptosporidium parvum, read-out: Parasite inhibition (%). How it is done:
The primary screening of compounds for C. parvum was performed as follows: HCT-8 cells were seeded in 96-well plates at a density of 2 × 10^4 cells/well and allowed to grow overnight. Before infecting cells, Cryptosporidium oocysts were excysted to sporozoites. 87 compounds were tested against C. parvum at a single concentration of 1 μM. Each compound was tested once. Infected HCT-8 cells and uninfected HCT-8 cells were used as positive and negative controls, respectively, in medium containing 0.1% DMSO. Nitazoxanide was used as a standard comparative drug. In vitro inhibition assays were carried out as previously described. Briefly, oocysts were suspended in 1 ml of 0.1% sodium hypochlorite in PBS, incubated for 5 min at 4°C, centrifuged for 10 min at 3000 rpm, and washed three times in PBS. The oocysts were then suspended in excystation solution consisting of 0.75% sodium taurocholate and 0.25% trypsin dissolved in 0.1 M phosphate buffer (with 93.4 mM K2HPO4 and 6.5 mM KH2PO4; pH 8.0) and incubated at 37°C for 1 h. The oocyst/sporozoite suspensions were then rinsed in 1 x PBS (with 137 mM NaCl, 2.7 mM KCl, 8 mM Na2HPO4, and 2 mM KH2PO4; pH 7.5) once more before being filtered through a 5-μm pore-size PVDF filter (Millipore, Burlington, MA, USA) with 5 ml syringe to remove the oocyst wall. HCT-8 cells were seeded in 96-well plates (Thermo Fisher Scientific Inc., MA, USA) and incubated overnight. The cells were then infected with C. parvum sporozoites (4 ×10^4 sporozoites/well) containing in RPMI-1640 medium for 3 h. After 3h inoculation, the non-infected parasite or debris were washed with new RPMI-1640 media. At this point, in RPMI-1640 medium containing 1 μM library compounds were added. Infected cells were incubated for an additional 45 h. Following incubation, the infected cells were fixed for 10 minutes in ice-cold 100% methanol at room temperature. Plates were then carefully rinsed 3 times with PBS. The parasite infected cells were then blocked with 1% bovine serum albumin (BSA) in PBS for 30 minutes and then stained with Sporo-Glo (an anti-Cryptosporidium polyclonal antibody) (Waterborne Environmental, Inc., VA, USA) protected from light for 1 h at room temperature. Finally, cells were washed twice with 1 x PBS-T (1 x PBS supplemented with 0.01% Tween). A Keyence BZ-II 9000 was used to capture the images (KEYENCE, Osaka, Japan). The plates were imaged with a HS all-in-one fluorescence microscope using a 20 x objective. The image output was imported into Microsoft excel for data organization and analyses. All C. parvum parasite in the well were counted.
For a second investigation, four selective hit compounds were used to determine the half-maximum inhibitory concentration (EC50). The parasites were treated with various doses of compounds (ranging from 0.008–1 μM). HCT-8 cells (2 × 10^4 cells/well) were grown for 24 h before being infected with 4 × 10^4 C. parvum sporozoites in 96-well plates. […] Sporo-Glo was used for C. parvum staining as described above. Fluorescence microscopy with a Keyence BZ-II 9000 imager was used to count all Cryptosporidium in the wells (KEYENCE, Osaka, Japan). EC50 vales were determined by analyzing dose-response curves made by GraphPad Prism (GraphPad Software, CA, USA).

Data set [1] is described as follows: Host cell viability assay (Cell-Titer Glo).
Experimental: HCT-8 cells (4 × 10^4 cells/well) 100 μl were seeded in 96-well plates, cultured for 24 h, and then treated for 48 h with different concentrations of hit compounds (10^1, 1, 10^−1, 10^−2, 10^−3, 10^−4 μM). After a 48-h incubation period, equilibrate the 96-well plates in room temperature (RT) for 30 minutes. Then, equal volume of Cell-Titer Glo (Promega) reagent was added to each treated well, the plate was shaken on an orbital shaker for 2 minutes then incubated for 10 minutes at RT. The luminescence was quantified by the GloMax Navigator plate reader (Promega, Japan) and the cell viability was evaluated as directed by the kit manufacturer. The luminescence signal of control wells containing DMSO was set to 100% cell viability. […] Graph Pad Prism 7.0.1 was used to determine CC50 values.
Setting [2] is: 1 μM, 45 h, C. parvum HNJ-1 strain in HCT-8 cells, first screen.
[3] abbreviates: human, HCT-8 cells, Host cell viability (%), 48 h, 1 μM.

Where two headings read alike, the source gives them in different places.

For the compound `CC(C)=CCC[C@](C)(O[C@@H]1O[C@H](CO)[C@@H](O)[C@H](O)[C@H]1O)[C@H]1CC[C@]2(C)[C@@H]1[C@H](O)C[C@@H]1[C@@]3(C)CC[C@H](O)C(C)(C)[C@@H]3[C@@H](O[C@@H]3O[C@H](CO)[C@@H](O)[C@H](O)[C@H]3O)C[C@]12C` [Ginsenoside-Rg1], the inhibition at 1 µM in the data set with C. parvum HNJ-1 strain (setting [2]) was 67.9%. The same compound displayed a viability at 48 h, 1 µM in data set [1] (setting [3]) of 99.1%. Regarding `COc1cc(CNC(=O)CCCCCCC(C)C)ccc1O` [Dihydrocapsaicin], the inhibition at 1 µM in the data set with C. parvum HNJ-1 strain (setting [2]) was determined as 70.8%. In data set [1] (setting [3]), this compound came in with a viability at 48 h, 1 µM of 98.4%.

Consider `CC(C)=CCC[C@](C)(O[C@@H]1O[C@H](CO)[C@@H](O)[C@H](O)[C@H]1O)[C@H]1CC[C@]2(C)[C@@H]1[C@H](O)C[C@@H]1[C@@]3(C)CC[C@H](O)C(C)(C)[C@@H]3[C@@H](O[C@@H]3O[C@H](CO)[C@@H](O)[C@H](O)[C@H]3O[C@@H]3O[C@@H](C)[C@H](O)[C@@H](O)[C@H]3O)C[C@]12C` [Ginsenoside-Re], for which the inhibition at 1 µM in the data set on C. parvum HNJ-1 strain (setting [2]) was found to be 71.2%. Moreover, in data set [1] (setting [3]), the viability at 48 h, 1 µM is 98.7%. For `CC(C)=CC[C@@H](O)C1=CC(=O)c2c(O)ccc(O)c2C1=O` [Shikonin], the inhibition at 1 µM in the data set on C. parvum HNJ-1 strain (HCT-8, 45 h) is 66.2%.

As for `CC(=O)O[C@H]1[C@H]2O[C@]23[C@@H]2CC[C@]4(O)C[C@@H](O)CC[C@]4(C)[C@H]2CC[C@]3(C)[C@H]1c1ccc(=O)oc1` [Cinobufotalin], in the data set on C. parvum HNJ-1 strain (HCT-8, 45 h), the inhibition at 1 µM is 70.7%. In addition, the viability at 48 h, 1 µM in data set [1] (human, Host cell viability (%), HCT-8 cells, 48 h, 1 μM) is 97.8%.
